# Data as given in publication PMC12281475, “Mediator Kinase Inhibitor Selectivity and Activity in Colorectal Cancer” (ACS Chemical Biology, 2025).
# Tested on: COLO205 cells
# Experiment: Promoter reporter panel (transient luciferase constructs), COLO205
# Type: cell-based, human
# Details: COLO205, 350 nM, 6 h
# Protocol: Transcription factor activity was assayed in cell lines using 45 different plasmid reporter constructs encoding firefly luciferase under the control of a basal promoter element downstream of specific transcriptional response elements (Qiagen, Germany; Supporting Table S1). Firefly luciferase under the control of basal promoter element alone was used to establish the baseline signal and cotransfection of a construct expressing renilla luciferase from a CMV-promoter was used as a transfection control. Cells were reverse-transfected with reporter plasmids, compounds were added 42 h post transfection and reporter activity quantified following 6 h continuous exposure.
# Transcription factor promoter reporter assays were carried out to define signalling pathways and biological processes modulated by CDK8/19 ligands. A panel of plasmid reporter constructs encoding firefly luciferase under the control of a basal promoter element with specific transcriptional response elements were used (Qiagen, Germany;
# Firefly luciferase under the control of the minimal promoter element (TATA box) alone was used to establish the base-line signal and a construct expressing renilla luciferase from a CMV-promoter was used as a transfection control. COLO205 human colon cancer cells or SW620 parental and CRISPR KO cells were reverse-transfected with the panel of plasmid reporters in a 96 well plate format. The reporter mixes were prepared at 40:1 ratio of fLUC to rLUC plasmid at a final concentration of
# 100 ng/ml. For each well 1 ul plasmid was complexed with 1 ul Lipofectamine 2000
# (Thermo Fisher Scientific, UK) in 50 ul OptiMEM (Thermo Fisher Scientific, UK) media
# for 20 mins at room temperature. Cells were trypsinised and 50 ul of cells at 2e5
# cells/ml in supplemented DMEM were added to the 50 ul of plasmid:lipofectamine
# mixture in OptiMEM in a well of a 96-well white opaque flat bottom microtiter plate.
# fLUC and rLUC were measured by the addition of 100 ul dual glo luciferase reagent
# (Promega, USA). Reporter activity was quantified in untreated cells 48 hours post- […]
compound,measurement,setting,value
Cn1cc(-c2ccc(-c3cncc(Cl)c3N3CCC4(CCNC4=O)CC3)cc2)cn1 [CCT251545],"reduction of activity of TCF/LEF, SP1 and PAX6 reporter constructs",,> 1.5 fold
same,WNT-regulated TCF/LEF reporter construct activity,p adj < 0.001,most significant decrease
